From patent US12637435B2, “Nitrogen-containing heterocyclic compound or salt thereof, use thereof, and intermediate thereof” (FUJIFILM Corporation, priority 2020, dated 2026)

Assays:
[1] = test system: human myeloid leukemia cell line HL60; assay: Cell growth test, HL60 (CellTiter-Glo); assay type: cell-based; conditions: HL-60, 72 h, HL60 cells, 3 days, CellTiter-Glo luminescence, read-out: Cell growth inhibitory effect (GI50)
Method: The cell growth test was carried out using the human myeloid leukemia cell line HL60 (available from ATCC, CRL-240). As a culture medium of HL60 cells, RPMI 1640 (available from FUJIFILM Wako Pure Chemical Corporation, 189-02025) supplemented with 10% fetal bovine serum (available from Thermo Fisher Scientific, Inc., 10437-028), and 1% penicillin-streptomycin (10,000 U/mL, available from Thermo Fisher Scientific, Inc., 15140-122) was used. HL60 cells were seeded on a 384-well plate (available from Corning Inc., 4588) at a cell density of 1×10^3 cells/20 μL/well. After culturing overnight, 5 μL of the test compound having a predetermined concentration was added, and 3 days later, 25 μL of CellTiter-Glo (registered trademark) Luminescent Cell Viability Assay (available from Promega Corporation, G7573) was added, and then the amount of luminescence was measured using an EnVision plate reader (available from PerkinElmer, Inc.). Since the amount of luminescence is proportional to the intracellular concentration of adenosine triphosphate (ATP), the amount of luminescence was used as an indicator of the number of viable cells. The growth inhibitory concentration for each test compound concentration was calculated by the following expression.
(§1) The growth inhibition rate at each test compound concentration was determined, and the 50% growth inhibitory concentration [GI50 (nmol/L)] was calculated using XLfit. Growth inhibition rate (%)=(amount of luminescence in test compound-added well)/(amount of luminescence in DMSO-added well)×100
The abbreviations in the table have the following meanings. • A: GI50 value<100 nmol/L • B: 100 nmol/L≤GI50 value<1,000 nmol/L • C: 1,000 nmol/L≤GI50 value

recombinant human DHODH = molecular target: T1, recombinant human DHODH (Homo sapiens, UniProt Q02127); assay: DHODH enzyme reaction inhibition test (DCIP-coupled assay); assay type: biochemical; conditions: recombinant human DHODH 0.175 μg/mL, DCIP absorbance 600 nm, 50 minutes, pH 8.0; read-out: Enzyme reaction inhibitory effect (IC50)
T1 construct: DHODH, 31-395aa, Human, His tag, E. coli, ATGP1615; His tag; purchased ATGen Co. Ltd. ATGP1615; host or cells: E. coli
T1 sequence (Q02127 31-395): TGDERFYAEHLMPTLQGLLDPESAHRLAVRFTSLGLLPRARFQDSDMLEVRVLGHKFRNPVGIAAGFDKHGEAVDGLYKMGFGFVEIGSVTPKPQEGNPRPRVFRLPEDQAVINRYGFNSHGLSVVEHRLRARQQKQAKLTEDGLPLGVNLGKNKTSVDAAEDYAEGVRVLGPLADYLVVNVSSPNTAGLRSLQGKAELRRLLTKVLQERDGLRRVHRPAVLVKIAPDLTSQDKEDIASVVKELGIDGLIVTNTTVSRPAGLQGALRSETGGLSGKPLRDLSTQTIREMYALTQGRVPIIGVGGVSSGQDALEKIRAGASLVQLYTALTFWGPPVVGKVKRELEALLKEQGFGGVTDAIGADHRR
Method: The DHODH enzyme assay was carried out with reference to “Benjamin Bader, Wolfgang Knecht, Markus Fries, and Monika Loffler, Expression, Purification, and Characterization of Histidine-Tagged Rat and Human Flavoenzyme Dihydroorotate Dehydrogenase, Protein Expression and Purification, 1998, 13, 414-422.”
The DHODH activity was evaluated using an enzyme assay system that is coupled with an assay in which a blue coloring agent 2,6-dichlorophenolindophenol (DCIP, available from MP Biomedicals, LLC, MP150118) is quenched. Purified recombinant human DHODH (DHODH, 31-395aa, Human, His tag, E. coli, ATGP1615) was purchased from ATGen Co. Ltd. The enzyme assay was carried out in a 384-well plate using a buffer solution containing 100 mmol/L Hepes (available from Dojindo Laboratories, 342-01375), 400 mmol/L NaCl (available from FUJIFILM Wako Pure Chemical Corporation, 191-01665), 10% Glycerol (available from FUJIFILM Wako Pure Chemical Corporation, 075-00616), 0.05% Triton X-100 (available from Sigma-Aldrich Co., LLC, T8787-100ML), 0.2 mmol/L Ubiquinone-10 (available from FUJIFILM Wako Pure Chemical Corporation, 216-00761), 0.1 mmol/L DHO (L-dihydroorotic acid, available from Sigma-Aldrich Co., LLC, D7128), 0.5% DMSO (dimethylsulfoxide, available from FUJIFILM Wako Pure Chemical Corporation, 047-29353), 0.175 μg/mL DHODH, and 0.12 mmol/L DCIP and having a pH adjusted to 8.0 by adding 5 mol/L potassium hydroxide (available from FUJIFILM Wako Pure Chemical Corporation, 168-21815). A test compound with a predetermined concentration was added using Biomek NX (available from Beckman Coulter Inc.), and the enzyme reaction was started by adding the substrate. The enzyme activity was assessed by measuring the decrease in DCIP absorbance (600 nm) for 50 minutes using an EnVision plate-reading spectrophotometer (available from PerkinElmer, Inc.).
as §1, with “enzyme reaction” for “growth”, “enzyme reaction inhibition” for “growth inhibitory”, “[IC50” for “[GI50”, “Enzyme reaction” for “Growth”
The abbreviations in the table have the following meanings. • A: IC50 value<10 nmol/L • B: 10 nmol/L≤IC50 value<100 nmol/L • C: 100 nmol/L≤IC50 value

| GI50 [1] | IC50 (recombinant human DHODH) | SMILES |
| --- | --- | --- |
| < 0.1 µM | 0.01 to 0.1 µM | NC(=O)c1nc(C2CC2)cnc1Nc1cccc(C2=CCOCC2)c1OCC(F)(F)F [Example 1-1, 6-cyclopropyl-3-((3-(3,6-dihydro-2H-pyran-4-yl)-2-(2,2,2-trifluoroethoxy)phenyl)amino)pyrazine-2-carboxamide] |
| 0.1 to 1 µM | 0.01 to 0.1 µM | OCc1nc(C2CC2)cnc1Nc1cccc(C2=CCOCC2)c1OCC(F)(F)F [Example 1-3] |
| 0.1 to 1 µM | 0.01 to 0.1 µM | Cc1ccc(-c2cccc(Nc3ncc(C4CC4)nc3C(=O)O)c2OCC(F)(F)F)c(C)n1 [Example 1-4, 6-cyclopropyl-3-((3-(2,6-dimethylpyridin-3-yl)-2-(2,2,2-trifluoroethoxy)phenyl)amino)pyrazine-2-carboxylic acid] |
| < 0.1 µM | < 0.01 µM | Cc1cc(C#N)ccc1-c1cccc(Nc2ncc(C3CC3)nc2C(=O)O)c1OCC(F)(F)F [Example 1-5, 3-((4′-cyano-2′-methyl-2-(2,2,2-trifluoroethoxy)-[1,1′-biphenyl]-3-yl)amino)-6-cyclopropylpyrazine-2-carboxylic acid] |
| < 0.1 µM | < 0.01 µM | FC(F)(F)COc1c(Nc2ncc(C3CC3)nc2-c2nnn[nH]2)cccc1C1=CCOCC1 [Example 1-6] |
| 0.1 to 1 µM | < 0.01 µM | O=c1[nH]c(-c2nc(C3CC3)cnc2Nc2cccc(C3=CCOCC3)c2OCC(F)(F)F)no1 [Example 1-7, 3-(6-cyclopropyl-3-((3-(3,6-dihydro-2H-pyran-4-yl)-2-(2,2,2-trifluoroethoxy)phenyl)amino)pyrazin-2-yl)-1,2,4-oxadiazol-5(4H)-one] |
| 0.1 to 1 µM | 0.01 to 0.1 µM | NNC(=O)c1nc(C2CC2)cnc1Nc1cccc(C2=CCOCC2)c1OCC(F)(F)F [Example 1-8, 6-cyclopropyl-3-((3-(3,6-dihydro-2H-pyran-4-yl)-2-(2,2,2-trifluoroethoxy)phenyl)amino)pyrazine-2-carbohydrazide] |
| 0.1 to 1 µM | 0.01 to 0.1 µM | O=c1[nH]nc(-c2nc(C3CC3)cnc2Nc2cccc(C3=CCOCC3)c2OCC(F)(F)F)o1 [Example 1-9, 5-(6-cyclopropyl-3-((3-(3,6-dihydro-2H-pyran-4-yl)-2-(2,2,2-trifluoroethoxy)phenyl)amino)pyrazin-2-yl)-1,3,4-oxadiazol-2(3H)-one] |
| 0.1 to 1 µM | 0.01 to 0.1 µM | CC(=O)c1nc(C2CC2)cnc1Nc1cccc(C2=CCOCC2)c1OCC(F)(F)F [Example 1-10, 1-(6-cyclopropyl-3-((3-(3,6-dihydro-2H-pyran-4-yl)-2-(2,2,2-trifluoroethoxy)phenyl)amino)pyrazin-2-yl)ethan-1-one] |
| ≥ 1 µM | ≥ 0.1 µM | CC(O)c1nc(C2CC2)cnc1Nc1cccc(C2=CCOCC2)c1OCC(F)(F)F (stereo not drawn) [Example 1-11, 1-(6-cyclopropyl-3-((3-(3,6-dihydro-2-H-pyran-4-yl)-2-(2,2,2-trifluoroethoxy)phenyl)amino)pyrazin-2-yl)ethan-1-ol] |
| 0.1 to 1 µM | 0.01 to 0.1 µM | CNNC(=O)c1nc(C2CC2)cnc1Nc1cccc(C2=CCOCC2)c1OCC(F)(F)F [Example 1-12, 6-cyclopropyl-3-((3-(3,6-dihydro-2H-pyran-4-yl)-2-(2,2,2-trifluoroethoxy)phenyl)amino)-N′-methylpyrazine-2-carbohydrazide] |
| ≥ 1 µM | ≥ 0.1 µM | CN(C)NC(=O)c1nc(C2CC2)cnc1Nc1cccc(C2=CCOCC2)c1OCC(F)(F)F [Example 1-13, 6-cyclopropyl-3-((3-(3,6-dihydro-2H-pyran-4-yl)-2-(2,2,2-trifluoroethoxy)phenyl)amino)-N,N-dimethylpyrazine-2-carbohydrazide] |
| ≥ 1 µM | ≥ 0.1 µM | O=Cc1nc(C2CC2)cnc1Nc1cccc(C2=CCOCC2)c1OCC(F)(F)F [Example 1-14, 6-cyclopropyl-3-((3-(3,6-dihydro-2H-pyran-4-yl)-2-(2,2,2-trifluoroethoxy)phenyl)amino)pyrazine-2-carbaldehyde] |
| ≥ 1 µM | ≥ 0.1 µM | CS(=O)(=O)NCc1nc(C2CC2)cnc1Nc1cccc(C2=CCOCC2)c1OCC(F)(F)F [Example 1-15, N-((6-cyclopropyl-3-((3-(3,6-dihydro-2H-pyran-4-yl)-2-(2,2,2-trifluoroethoxy)phenyl)amino)pyrazin-2-yl)methyl)methanesulfonamide] |
| 0.1 to 1 µM | 0.01 to 0.1 µM | N#CNCc1nc(C2CC2)cnc1Nc1cccc(C2=CCOCC2)c1OCC(F)(F)F [Example 1-16, N-((6-cyclopropyl-3-((3-(3,6-dihydro-2H-pyran-4-yl)-2-(2,2,2-trifluoroethoxy)phenyl)amino)pyrazin-2-yl)methyl)cyanamide] |
| ≥ 1 µM | ≥ 0.1 µM | NCc1nc(C2CC2)cnc1Nc1cccc(C2=CCOCC2)c1OCC(F)(F)F [Example 1-17, 3-(aminomethyl)-5-cyclopropyl-N-(3-(3,6-dihydro-2H-pyran-4-yl)-2-(2,2,2-trifluoroethoxy)phenyl)pyrazine-2-amine] |
| < 0.1 µM | < 0.01 µM | C[C@H](Oc1c(Nc2ccc(C3CC3)cc2C(=O)O)ccnc1C1=CCOCC1)C(F)(F)F [Example 1-18] |
| 0.1 to 1 µM | < 0.01 µM | O=C(O)c1cc(C2CC2)ccc1Nc1cncc(C2=CCOCC2)c1OCC(F)(F)F [Example 2-1] |
| < 0.1 µM | < 0.01 µM | O=C(O)c1cc(C2CC2)cnc1Nc1cc(F)cc(C2CCOCC2)c1OC(F)F [Example 2-3] |
| < 0.1 µM | < 0.01 µM | N#Cc1ccc(-c2cccc(Nc3ncc(C4CC4)nc3C(=O)O)c2OCC(F)(F)F)cc1 [Example 2-4] |
| < 0.1 µM | < 0.01 µM | O=C(O)c1cc(C2CC2)cnc1Nc1cccc(C2=CCOCC2)c1OCC(F)(F)F [Example 2-5] |
| < 0.1 µM | < 0.01 µM | C[C@H](Oc1c(Nc2ccc(C3CC3)cc2C(=O)O)cncc1C1=CCOCC1)C(F)(F)F [Example 2-6] |
| < 0.1 µM | < 0.01 µM | N#Cc1ccc(-c2cccc(Nc3ncc(C4CC4)cc3C(=O)O)c2OCC(F)(F)F)cc1 [Example 2-7] |
| < 0.1 µM | < 0.01 µM | O=C(O)c1cc(C2CC2)cnc1Nc1cc(F)cc(C2CCOCC2)c1OCC(F)(F)F [Example 2-8] |
| < 0.1 µM | < 0.01 µM | N#Cc1cccc(-c2cccc(Nc3ncc(C4CC4)nc3C(=O)O)c2OCC(F)(F)F)c1 [Example 2-9] |
| < 0.1 µM | < 0.01 µM | CCc1c(Nc2ncc(C3CC3)cc2C(=O)O)cccc1C1CCOCC1 [Example 2-10] |
| 0.1 to 1 µM | < 0.01 µM | N#Cc1ccc(-c2cccc(Nc3ncc(C4CC4)nc3C(=O)O)c2OC(F)F)cc1 [Example 2-11] |
| 0.1 to 1 µM | 0.01 to 0.1 µM | N#Cc1ccc(-c2cc(F)cc(Nc3ncc(C4CC4)nc3C(=O)O)c2OC(F)F)cc1 [Example 2-12] |
| < 0.1 µM | < 0.01 µM | O=C(O)c1nc(C2CC2)cnc1Nc1cccc(-c2ccc(F)cc2)c1OCC(F)(F)F [Example 2-13] |
| 0.1 to 1 µM | < 0.01 µM | CCOc1c(C2=CCOCC2)ccc(F)c1Nc1ncc(C2CC2)cc1C(=O)O [Example 2-14] |
